The structures appear in SMILES notation.

One data set concerns the target T1, aldose reductase (Bos taurus, UniProt P16116).
T1 construct: partially purified aldose reductase derived from bovine lenses; from tissue; host or cells: bovine lenses
Briefly: Aldose reductase inhibitory activity. The format is biochemical, bovine (lenses). Particulars: partially purified bovine lens enzyme. The method, then:
The preparation of an aldose reductase and the quantitative analysis of its enzymatic activity were effected in accordance with the method described by Hayman et al. in "Journal of Biological Chemistry" 240, 877 (1965). It was a partially purified aldose reductase derived from bovine lenses that was employed as an enzyme. Placed in a quartz cell in a spectrophotometer photometer was 2.4 ml of a 5×10^- 5M NADPH solution dissolved in 2/15M phosphate buffer (pH 6.0), 0.4 ml of 15 milli-units/ml solution of the enzyme and 0.1 ml of an aqueous aldostatin of one of various concentration. The contents were pre-incubated at 37° C. for 4 minutes. […] The reduction of the absorbance at 340 nm was traced at 37° C. for 4 minutes. At that time, the value (B) of tan θ was determined. Similarly, the reduction of the absorbance at 340 nm without addition of the inhibitor "aldostatin" was tracked. At that time, the value (A) of tan θ was determined. Percent inhibition (%) was calculated as follows. [formula]
The amount of inhibitor for 50% inhibition was expressed as IC50.

A further data set can be described thus: Solubility. The format is physicochemical.
The test system of a further data set is mice. Briefly: Acute toxicity. The data set is classed as in vivo. Particulars: i.v., dose of 200 mg/kg.

For the compound `O=CN[C@@H](Cc1ccc(O)c(-c2cc(C[C@H](NC=O)C(=O)O)ccc2O)c1)C(=O)O` [aldostatin], the IC50 – broadly, the concentration at which inhibition is half-maximal – against aldose reductase (substrate glucose (5.0 × 10^-2 M)) was 2640 nM; on aldose reductase (substrate glyceraldehyde (5.0 × 10^-4 M), NADPH, pH 6.0, 37° C.), 1200 nM. The solubility result in the data set “Solubility” (acetone) was “slightly soluble”; in “Solubility” (benzene), “insoluble”; in “Solubility” (chloroform), “slightly soluble”; in the data set “Solubility” (dimethylsulfoxide), “soluble”; in the data set “Solubility” (ethyl acetate), “slightly soluble”; in the data set “Solubility” (hexane), “insoluble”. In addition, the solubility result in “Solubility” (methanol) is listed as “soluble”; in “Solubility” (petroleum ether), “insoluble”; in “Solubility” (water), “soluble”. In addition, in the data set on mice, the “toxic effect (acute toxicity)” value is given as “no toxic effect”.
